Key:
Type in all cases: in vivo
[1] = tested on: johnsongrass (Sorghum halepense); assay: Test C postemergence, plant response rating; details: for Johnsongrass plant response rating: scale 0 to 100 (0 no effect, 100 complete control)
In short: (§1)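 After sowing in loam–sand blend or silt loam, pots were sprayed preemergence; separately grown 1- to 4-leaf plants were sprayed postemergence. Following 13 to 15 d under greenhouse conditions, injury was rated visually on a 0 to 100 scale.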

[2] = tested on: pigweed (Amaranthus retroflexus); assay: Test C postemergence, plant response rating
In short: as §1

[3] = tested on: galium (catchweed bedstraw, Galium aparine); assay: Test C preemergence, plant response rating
[4] = tested on: pigweed (Amaranthus retroflexus); assay: Test C preemergence, plant response rating; details: Preemergence
[5] = tested on: barnyardgrass (Echinochloa crus-galli); assay: Test C preemergence, plant response rating; details: Preemergence
[6] = tested on: johnsongrass (Sorghum halepense); assay: Test C preemergence, plant response rating
[7] = tested on: surinam grass (Brachiaria decumbens); assay: Test C postemergence, plant response rating
In short: as §1

[8] = tested on: field poppy (Papaver rhoeas); assay: Test C postemergence, plant response rating; details: for Field Poppy plant response rating: scale 0 to 100 (0 no effect, 100 complete control)
In short: as §1

[9] = tested on: pigweed, palmer (palmer pigweed, Amaranthus palmeri); assay: Test C postemergence, plant response rating; details: for Pigweed, Palmer plant response rating: scale 0 to 100 (0 no effect, 100 complete control)
In short: as §1

[10] = tested on: windgrass (Apera spica-venti); assay: Test C postemergence, plant response rating
In short: as §1

[11] = tested on: geranium, cutleaf (cutleaf geranium, Geranium dissectum); assay: Test C postemergence, plant response rating; details: for Geranium, Cutleaf plant response rating: scale 0 to 100 (0 no effect, 100 complete control)
In short: as §1

[12] = tested on: field violet (Viola arvensis); assay: Test C postemergence, plant response rating; details: for Field Violet plant response rating: scale 0 to 100 (0 no effect, 100 complete control)
In short: as §1

[13] = tested on: buckwheat, wild (wild buckwheat, Polygonum convolvulus); assay: Test C postemergence, plant response rating; details: for Buckwheat, Wild plant response rating: scale 0 to 100 (0 no effect, 100 complete control)
In short: as §1

[14] = tested on: wild poinsettia (Euphorbia heterophylla); assay: Test C postemergence, plant response rating; details: for Poinsettia, Wild plant response rating: scale 0 to 100 (0 no effect, 100 complete control)
In short: as §1

[15] = tested on: wild mustard (Sinapis arvensis); assay: Test C postemergence, plant response rating; details: for Mustard, Wild plant response rating: scale 0 to 100 (0 no effect, 100 complete control)
In short: as §1

[16] = tested on: Canada thistle (Cirsium arvense); assay: Test C postemergence, plant response rating; details: for Canada Thistle plant response rating: scale 0 to 100 (0 no effect, 100 complete control)
In short: as §1

[17] = tested on: nightshade (eastern black nightshade, Solanum ptycanthum); assay: Test C postemergence, plant response rating; details: for Nightshade plant response rating: scale 0 to 100 (0 no effect, 100 complete control)
In short: as §1

[18] = tested on: speedwell (bird's-eye speedwell, Veronica persica); assay: Test C postemergence, plant response rating; details: for Speedwell plant response rating: scale 0 to 100 (0 no effect, 100 complete control)
In short: as §1

[19] = 125 g ai/ha, scale 0 to 100 (0 no effect, 100 complete control)

## N#Cc1cccc(Oc2ncc(Cl)cn2)c1CCCC(F)(F)F [Compound 72]
[1]; 16 g ai/ha, scale 0 to 100
  Plant response rating, Johnsongrass: 5
[1]; 31 g ai/ha, scale 0 to 100
  Plant response rating, Johnsongrass: 10
[1]; 62 g ai/ha
  Johnsongrass plant response rating: 10
[1]; 125 g ai/ha
  Johnsongrass plant response rating: 10
[2]; 16 g ai/ha, scale 0 to 100
  Plant response rating, Pigweed: 80
[2]; 31 g ai/ha, scale 0 to 100
  Plant response rating, Pigweed: 85
[2]; 62 g ai/ha, scale 0 to 100 (0 no effect, 100 complete control)
  Pigweed plant response rating: 85
[2]; [19]
  Pigweed plant response rating: 100
[3]; 16 g ai/ha, scale 0 to 100
  Plant response rating, Galium: 5
[3]; 31 g ai/ha, scale 0 to 100
  Plant response rating, Galium: 75
[3]; 62 g ai/ha, scale of 0 to 100
  Plant response rating, Galium: 90
[3]; 125 g ai/ha, scale of 0 to 100
  Plant response rating, Galium: 100
[4]; 125 g ai/ha, scale of 0 to 100
  Plant response rating, Pigweed: 100
[4]; 16 g ai/ha, scale 0 to 100
  Plant response rating, Pigweed: 100
[4]; 31 g ai/ha, scale 0 to 100
  Plant response rating, Pigweed: 100
[4]; 62 g ai/ha, scale 0 to 100
  Plant response rating, Pigweed: 100
[5]; 62 g ai/ha, scale of 0 to 100
  Plant response rating, Barnyardgrass: 80
[5]; 125 g ai/ha, scale of 0 to 100
  Plant response rating, Barnyardgrass: 100
[5]; 16 g ai/ha, scale 0 to 100
  Plant response rating, Barnyardgrass: 25
[5]; 31 g ai/ha, scale 0 to 100
  Plant response rating, Barnyardgrass: 90
[6]; 16 g ai/ha, scale 0 to 100
  Plant response rating, Johnsongrass: 5
[6]; 31 g ai/ha, scale 0 to 100
  Plant response rating, Johnsongrass: 65
[6]; 62 g ai/ha, scale 0 to 100
  Plant response rating, Johnsongrass: 70
[6]; 125 g ai/ha, scale of 0 to 100
  Plant response rating, Johnsongrass: 100

## N#Cc1cccc(Oc2ncc(Cl)cn2)c1CCCCC(F)(F)F [Compound 73, 3-[(5-chloro-2-pyrimidinyl)oxy]-2-(5,5,5-trifluoropentyl)benzonitrile]
[1]; 16 g ai/ha, scale 0 to 100
  Plant response rating, Johnsongrass: 5
[1]; 31 g ai/ha, scale 0 to 100
  Plant response rating, Johnsongrass: 10
[1]; 62 g ai/ha
  Johnsongrass plant response rating: 20
[1]; 125 g ai/ha
  Johnsongrass plant response rating: 20
[2]; Amaranthus retroflexus, post-emergence, 16 g ai/ha, scale 0 to 100
  pest or weed control at 16 g/ha: 90%
[2]; Amaranthus retroflexus, post-emergence, 31 g ai/ha, scale 0 to 100
  pest or weed control at 31 g/ha: 85%
[2]; Amaranthus retroflexus, post-emergence, 62 g ai/ha, scale 0 to 100 (0 no effect, 100 complete control)
  pest or weed control at 62 g/ha: 100%
[2]; Amaranthus retroflexus, post-emergence, 125 g ai/ha, scale 0 to 100 (0 no effect, 100 complete control)
  pest or weed control at 125 g/ha: 100%
[3]; 16 g ai/ha, scale 0 to 100
  Plant response rating, Galium: 5
[3]; 31 g ai/ha, scale 0 to 100
  Plant response rating, Galium: 10
[3]; 62 g ai/ha, scale of 0 to 100
  Plant response rating, Galium: 100
[3]; 125 g ai/ha, scale of 0 to 100
  Plant response rating, Galium: 100
[4]; 125 g ai/ha, scale of 0 to 100
  Plant response rating, Pigweed: 100
[4]; 16 g ai/ha, scale 0 to 100
  Plant response rating, Pigweed: 90
[4]; 31 g ai/ha, scale 0 to 100
  Plant response rating, Pigweed: 95
[4]; 62 g ai/ha, scale 0 to 100
  Plant response rating, Pigweed: 100
[5]; Echinochloa crus-galli, pre-emergence, 62 g ai/ha, scale of 0 to 100
  pest or weed control at 62 g/ha: 100%
[5]; Echinochloa crus-galli, pre-emergence, 125 g ai/ha, scale of 0 to 100
  pest or weed control at 125 g/ha: 100%
[5]; Echinochloa crus-galli, pre-emergence, 16 g ai/ha, scale 0 to 100
  pest or weed control at 16 g/ha: 15%
[5]; Echinochloa crus-galli, pre-emergence, 31 g ai/ha, scale 0 to 100
  pest or weed control at 31 g/ha: 80%
[6]; 16 g ai/ha, scale 0 to 100
  Plant response rating, Johnsongrass: 0
[6]; 31 g ai/ha, scale 0 to 100
  Plant response rating, Johnsongrass: 40
[6]; 62 g ai/ha, scale 0 to 100
  Plant response rating, Johnsongrass: 80
[6]; 125 g ai/ha, scale of 0 to 100
  Plant response rating, Johnsongrass: 95

## O=C(CCC(F)(F)C(F)(F)F)c1c(Br)cccc1Oc1ncc(Cl)cn1 [Compound 110]
[7]; 16 g ai/ha, scale of 0 to 100
  Plant response rating, Surinam Grass: 15
[7]; 31 g ai/ha, scale 0 to 100
  Plant response rating, Surinam Grass: 20
[7]; [19]
  Surinam Grass plant response rating: 25
[8]; 16 g ai/ha, scale of 0 to 100
  Plant response rating, Field Poppy: 85
[8]; 31 g ai/ha, scale 0 to 100
  Plant response rating, Field Poppy: 100
[8]; 62 g ai/ha
  Field Poppy plant response rating: 100
[8]; 125 g ai/ha
  Field Poppy plant response rating: 100
[9]; 16 g ai/ha, scale of 0 to 100
  Plant response rating, Pigweed, Palmer: 75
[9]; 31 g ai/ha, scale 0 to 100
  Plant response rating, Pigweed, Palmer: 95
[9]; 62 g ai/ha
  Pigweed, Palmer plant response rating: 98
[9]; 125 g ai/ha
  Pigweed, Palmer plant response rating: 95
[10]; 16 g ai/ha, scale of 0 to 100
  Plant response rating, Windgrass: 20
[10]; 31 g ai/ha, scale 0 to 100
  Plant response rating, Windgrass: 25
[10]; [19]
  Windgrass plant response rating: 30
[1]; 16 g ai/ha, scale of 0 to 100
  Plant response rating, Johnsongrass: 5
[1]; 31 g ai/ha, scale 0 to 100
  Plant response rating, Johnsongrass: 10
[1]; 62 g ai/ha
  Johnsongrass plant response rating: 10
[1]; 125 g ai/ha
  Johnsongrass plant response rating: 15
[11]; 16 g ai/ha, scale of 0 to 100
  Plant response rating, Geranium, Cutleaf: 5
[11]; 31 g ai/ha, scale 0 to 100
  Plant response rating, Geranium, Cutleaf: 30
[11]; 62 g ai/ha
  Geranium, Cutleaf plant response rating: 40
[11]; 125 g ai/ha
  Geranium, Cutleaf plant response rating: 60
[12]; 16 g ai/ha, scale of 0 to 100
  Plant response rating, Field Violet: 80
[12]; 31 g ai/ha, scale 0 to 100
  Plant response rating, Field Violet: 95
[12]; 62 g ai/ha
  Field Violet plant response rating: 95
[12]; 125 g ai/ha
  Field Violet plant response rating: 100
[13]; 16 g ai/ha, scale of 0 to 100
  Plant response rating, Buckwheat, Wild: 85
[13]; 31 g ai/ha, scale 0 to 100
  Plant response rating, Buckwheat, Wild: 85
[13]; 62 g ai/ha
  Buckwheat, Wild plant response rating: 95
[13]; 125 g ai/ha
  Buckwheat, Wild plant response rating: 80
[14]; 16 g ai/ha, scale of 0 to 100
  Plant response rating, Poinsettia, Wild: 40
[14]; 31 g ai/ha, scale 0 to 100
  Plant response rating, Poinsettia, Wild: 65
[14]; 62 g ai/ha
  Poinsettia, Wild plant response rating: 80
[14]; 125 g ai/ha
  Poinsettia, Wild plant response rating: 90
[15]; 16 g ai/ha, scale of 0 to 100
  Plant response rating, Mustard, Wild: 90
[15]; 31 g ai/ha, scale 0 to 100
  Plant response rating, Mustard, Wild: 90
[15]; 62 g ai/ha
  Mustard, Wild plant response rating: 100
[15]; 125 g ai/ha
  Mustard, Wild plant response rating: 100
[16]; 16 g ai/ha, scale of 0 to 100
  Plant response rating, Canada Thistle: 65
[16]; 31 g ai/ha, scale 0 to 100
  Plant response rating, Canada Thistle: 90
[16]; 62 g ai/ha
  Canada Thistle plant response rating: 98
[16]; 125 g ai/ha
  Canada Thistle plant response rating: 95
[17]; 16 g ai/ha, scale of 0 to 100
  Plant response rating, Nightshade: 75
[17]; 31 g ai/ha, scale 0 to 100
  Plant response rating, Nightshade: 85
[17]; 62 g ai/ha
  Nightshade plant response rating: 95
[17]; 125 g ai/ha
  Nightshade plant response rating: 98
[18]; 16 g ai/ha, scale of 0 to 100
  Plant response rating, Speedwell: 60
[18]; 31 g ai/ha, scale 0 to 100
  Plant response rating, Speedwell: 95
[18]; 62 g ai/ha
  Speedwell plant response rating: 90
[18]; 125 g ai/ha
  Speedwell plant response rating: 95
